Data on 47 molecules can be found in ChEMBL document CHEMBL4680150, “Design, synthesis and biological evaluation of vincamine derivatives as potential pancreatic β-cells protective agents for the treatment of type 2 diabetes mellitus” (Eur J Med Chem, 2020).

The subject of assay [1] is INS1(832/13). Briefly: Cytoprotective activity in rat INS-1 832/13 cells assessed as inhibition of STZ-induced apoptosis at 20 uM incubated for 24 hrs by MTT assay relative to control. The class given is functional.
The subject of assay [2] is INS1(832/13). In words: Cytoprotective activity in rat INS-1 832/13 cells assessed as inhibition of STZ-induced apoptosis incubated for 24 hrs by MTT assay. The assay is classed as functional, cell-based. To be noted: INS-1 832/13, 24 h.

pEC50: −log10 of the molar value. Calls of active or inactive are those of the source. The rule behind the calls is not given here.

For `CC[C@@]12C=C(C(=O)Nc3ccc(OC)cc3)n3c4c(c5ccccc53)CCN(CCC1)[C@H]42`, the outcome in the assay with INS1(832/13) [1] was inactive.

Consider `CC[C@@]12C=C(C(N)=O)n3c4c(c5ccccc53)CCN(CCC1)[C@H]42`, for which the negative logarithm of the EC50 (pEC50) in the assay with INS1(832/13) [2] is 4.99. In addition, the outcome in the assay on INS1(832/13) [1] was inactive.

Regarding `CCN(CC)C(=O)C1=C[C@]2(CC)CCCN3CCc4c(n1c1ccccc41)[C@@H]32`, the pEC50 with INS1(832/13) [2] is 4.94. In the assay on INS1(832/13) [1], the result was Active.

Take `CCCNC(=O)C1=C[C@]2(CC)CCCN3CCc4c(n1c1ccccc41)[C@@H]32`: the pEC50 in the assay on INS1(832/13) [2] was 6.43. Moreover, in the assay with INS1(832/13) [1], the result was Active.

Consider `CC[C@@]12C=C(COC(=O)NCCCO)n3c4c(c5ccccc53)CCN(CCC1)[C@H]42`, for which the negative logarithm of the EC50 (pEC50) in the assay on INS1(832/13) [2] is 5.04. Further, the outcome with INS1(832/13) [1] was Active.

For `CC[C@@]12C=C(CNC(N)=O)n3c4c(c5ccccc53)CCN(CCC1)[C@H]42`, the result with INS1(832/13) [1] was inactive.

With `CCCCNC(=O)OCC1=C[C@]2(CC)CCCN3CCc4c(n1c1ccccc41)[C@@H]32`, the outcome in the assay on INS1(832/13) [1] was inactive.

In the case of `CC[C@@]12C=C(C(=O)NCCCO)n3c4c(c5ccccc53)CCN(CCC1)[C@H]42`, the pEC50 in the assay on INS1(832/13) [2] is 4.99. In addition, in the assay with INS1(832/13) [1], the result was Active.

Turning to `CC[C@@]12C=C(C(=O)NC3CCCC3)n3c4c(c5ccccc53)CCN(CCC1)[C@H]42`, in the assay with INS1(832/13) [2], the negative logarithm of the EC50 (pEC50) is 4.89. Further, the result in the assay on INS1(832/13) [1] was Active.

With `CCCOC(=O)C1=C[C@]2(CC)CCCN3CCc4c(n1c1ccccc41)[C@@H]32`, the negative-log EC50 (pEC50) in the assay with INS1(832/13) [2] was 5.26. Besides, the result in the assay on INS1(832/13) [1] was Active.

On to `CC[C@@]12C=C(COC(C)=O)n3c4c(c5ccccc53)CCN(CCC1)[C@H]42`, for which, in the assay with INS1(832/13) [2], the pEC50 is 6.44. For the same molecule, the result in the assay on INS1(832/13) [1] was Active.

Consider `CC[C@@]12C=C(COC(=O)NC(C)C)n3c4c(c5ccccc53)CCN(CCC1)[C@H]42`, for which the pEC50 in the assay on INS1(832/13) [2] was 4.97. Further, the result in the assay on INS1(832/13) [1] was Active.

With `CCCN(CCC)C(=O)C1=C[C@]2(CC)CCCN3CCc4c(n1c1ccccc41)[C@@H]32`, the pEC50 with INS1(832/13) [2] was 5.15. Further, in the assay with INS1(832/13) [1], the outcome was Active.

In the case of `CC[C@@]12C=C(COC(=O)c3ccccc3)n3c4c(c5ccccc53)CCN(CCC1)[C@H]42`, the result in the assay with INS1(832/13) [1] was inactive.

In the case of `CC[C@@]12C=C(COC(=O)NCCO)n3c4c(c5ccccc53)CCN(CCC1)[C@H]42`, in the assay on INS1(832/13) [2], the pEC50 was 5.27. Moreover, in the assay with INS1(832/13) [1], the result was Active.

With `CC[C@@]12C=C(C(=O)NCCO)n3c4c(c5ccccc53)CCN(CCC1)[C@H]42`, the pEC50 in the assay with INS1(832/13) [2] is 6.02. For the same molecule, the outcome in the assay on INS1(832/13) [1] was Active.

As to `CC[C@@]12C=C(C(=O)N3CCCCC3)n3c4c(c5ccccc53)CCN(CCC1)[C@H]42`, in the assay with INS1(832/13) [2], the pEC50 was 5.31. The result with INS1(832/13) [1] was Active.

As to `CCNC(=O)OCC1=C[C@]2(CC)CCCN3CCc4c(n1c1ccccc41)[C@@H]32`, in the assay with INS1(832/13) [2], the pEC50 was 5.77. Further, in the assay on INS1(832/13) [1], the outcome was Active.

On to `CC[C@@]12C=C(CNC(=O)NC)n3c4c(c5ccccc53)CCN(CCC1)[C@H]42`, for which, in the assay with INS1(832/13) [1], the result was inactive.

For the molecule `CC[C@@]12C=C(C(=O)N3CCOCC3)n3c4c(c5ccccc53)CCN(CCC1)[C@H]42`, the negative-log EC50 (pEC50) in the assay on INS1(832/13) [2] was 4.96. Moreover, in the assay with INS1(832/13) [1], the result was Active.

For the molecule `CC[C@@]12C=C(C(=O)Nc3ccccc3)n3c4c(c5ccccc53)CCN(CCC1)[C@H]42`, the outcome in the assay on INS1(832/13) [1] was inactive.

For the molecule `CCCCNC(=O)C1=C[C@]2(CC)CCCN3CCc4c(n1c1ccccc41)[C@@H]32`, the negative logarithm of the EC50 (pEC50) in the assay with INS1(832/13) [2] is 5.03. Also, the outcome in the assay on INS1(832/13) [1] was Active.

`CC[C@@]12C=C(CNC)n3c4c(c5ccccc53)CCN(CCC1)[C@H]42`: the negative logarithm of the EC50 (pEC50) in the assay with INS1(832/13) [2] is 5.80. In addition, the outcome in the assay on INS1(832/13) [1] was Active.

As to `CCC(=O)OCC1=C[C@]2(CC)CCCN3CCc4c(n1c1ccccc41)[C@@H]32`, the negative logarithm of the EC50 (pEC50) in the assay with INS1(832/13) [2] was 5.16. Also, the outcome in the assay with INS1(832/13) [1] was Active.

On to `CC[C@@]12C=C(COC(N)=O)n3c4c(c5ccccc53)CCN(CCC1)[C@H]42`, for which the pEC50 with INS1(832/13) [2] was 5.06. In the assay with INS1(832/13) [1], the result was Active.

In the case of `CCCNC(=O)OCC1=C[C@]2(CC)CCCN3CCc4c(n1c1ccccc41)[C@@H]32`, in the assay on INS1(832/13) [2], the pEC50 was 5.23. In addition, in the assay with INS1(832/13) [1], the outcome was Active.

As for `CCNC(=O)NCC1=C[C@]2(CC)CCCN3CCc4c(n1c1ccccc41)[C@@H]32`, the result in the assay with INS1(832/13) [1] was inactive.

`CC[C@@]12C=C(C(=O)N(C)C)n3c4c(c5ccccc53)CCN(CCC1)[C@H]42`: the outcome in the assay on INS1(832/13) [1] was inactive.

On to `CC[C@@]12C=C(C(=O)N3CCCC3)n3c4c(c5ccccc53)CCN(CCC1)[C@H]42`, for which, in the assay with INS1(832/13) [2], the negative logarithm of the EC50 (pEC50) is 4.88. Also, the outcome in the assay with INS1(832/13) [1] was Active.

On to `CC[C@@]12C=C(CNC(=O)c3ccccc3)n3c4c(c5ccccc53)CCN(CCC1)[C@H]42`, for which the result in the assay with INS1(832/13) [1] was inactive.

In the case of `CC[C@@]12C=C(COC(=O)C(C)C)n3c4c(c5ccccc53)CCN(CCC1)[C@H]42`, in the assay on INS1(832/13) [2], the negative logarithm of the EC50 (pEC50) is 5.76. Moreover, in the assay with INS1(832/13) [1], the result was Active.

Consider `CC[C@@]12C=C(C(=O)NC(C)C)n3c4c(c5ccccc53)CCN(CCC1)[C@H]42`, for which the negative logarithm of the EC50 (pEC50) in the assay on INS1(832/13) [2] was 4.97. Further, in the assay with INS1(832/13) [1], the result was Active.

With `CC[C@@]12C=C(C(=O)OC(C)C)n3c4c(c5ccccc53)CCN(CCC1)[C@H]42`, in the assay with INS1(832/13) [2], the pEC50 was 5.34. Also, the outcome in the assay on INS1(832/13) [1] was Active.

Consider `CCC(=O)NCC1=C[C@]2(CC)CCCN3CCc4c(n1c1ccccc41)[C@@H]32`, for which the pEC50 in the assay with INS1(832/13) [2] was 5.52. For the same molecule, in the assay with INS1(832/13) [1], the outcome was Active.

For `CC[C@@]12C=C(COC(=O)NC)n3c4c(c5ccccc53)CCN(CCC1)[C@H]42`, the pEC50 with INS1(832/13) [2] is 5.78. The outcome with INS1(832/13) [1] was Active.

Consider `CCNC(=O)C1=C[C@]2(CC)CCCN3CCc4c(n1c1ccccc41)[C@@H]32`, for which the pEC50 in the assay with INS1(832/13) [2] was 6.70. For the same molecule, the result with INS1(832/13) [1] was Active.

`CC[C@@]12C=C(CNC(=O)C(C)C)n3c4c(c5ccccc53)CCN(CCC1)[C@H]42`: the pEC50 with INS1(832/13) [2] is 5.14. Further, the outcome in the assay with INS1(832/13) [1] was Active.

For `CCCC(=O)NCC1=C[C@]2(CC)CCCN3CCc4c(n1c1ccccc41)[C@@H]32`, the pEC50 in the assay with INS1(832/13) [2] was 5.06. For the same molecule, the outcome in the assay on INS1(832/13) [1] was Active.

Turning to `CC[C@@]12C=C(C(=O)OC)n3c4c(c5ccccc53)CCN(CCC1)[C@H]42` [APOVINCAMINE], the pEC50 in the assay on INS1(832/13) [2] is 5.30. In the assay on INS1(832/13) [1], the outcome was Active.

As for `CC[C@@]12C=C(CNC(=O)C3CC3)n3c4c(c5ccccc53)CCN(CCC1)[C@H]42`, the pEC50 in the assay on INS1(832/13) [2] was 5.36. For the same molecule, in the assay with INS1(832/13) [1], the result was Active.

Regarding `CC[C@@]12C=C(CN)n3c4c(c5ccccc53)CCN(CCC1)[C@H]42`, in the assay on INS1(832/13) [2], the pEC50 was 5.12. In addition, in the assay on INS1(832/13) [1], the result was Active.

Regarding `CCCCCNC(=O)C1=C[C@]2(CC)CCCN3CCc4c(n1c1ccccc41)[C@@H]32`, in the assay on INS1(832/13) [1], the outcome was inactive.

`CCCNCC1=C[C@]2(CC)CCCN3CCc4c(n1c1ccccc41)[C@@H]32`: the result in the assay with INS1(832/13) [1] was inactive.

Turning to `CC[C@@]12C=C(CNCc3ccccc3)n3c4c(c5ccccc53)CCN(CCC1)[C@H]42`, in the assay with INS1(832/13) [1], the outcome was inactive.

On to `CCCCN(CCCC)C(=O)C1=C[C@]2(CC)CCCN3CCc4c(n1c1ccccc41)[C@@H]32`, for which the outcome in the assay on INS1(832/13) [1] was inactive.

Regarding `CC[C@@]12C=C(CNC(=O)Nc3ccccc3)n3c4c(c5ccccc53)CCN(CCC1)[C@H]42`, in the assay on INS1(832/13) [1], the outcome was inactive.

On to `CC[C@@]12C=C(COC(=O)Nc3ccccc3)n3c4c(c5ccccc53)CCN(CCC1)[C@H]42`, for which, in the assay on INS1(832/13) [1], the result was inactive.

Usually pEC50 stands for the negative decadic logarithm of the EC50, by convention in mol/L.
